Experimental findings from patent EP4741392A1, “1H-PYRAZOLO[4,3-C]PYRIDINE COMPOUND, AND COMPOSITION THEREOF AND USE THEREOF” (Shenzhen TargetRx Co., Ltd., priority 2023, dated 2025) are described below.

Read-outs that look alike come from different tables or passages of the source.

Common to all, as to type: cell-based
In one assay the test system is Ramos cells with BTK WT. Kind of assay: Phosphor-BTK(Y223) assay, suspended cells. The settings on record: phosphorylated BTK Y223, Ramos cells with BTK WT. The gist of the method: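 Ramos BTK WT cells (2.5 k/well) were treated with compound dilutions for 2 h at 37 °C, then 5 mM Na3VO4 for 3 h. Lysates were read by HTRF p-BTK(Y223) cryptate/d2 antibodies overnight at RT (665/620 ratio). IC50 came from a four-parameter fit of % inhibition versus blank and positive-control wells.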

The test system of a further assay is TMD8 cells. Kind of assay: Viability assay of TMD8 cells (CTG). Conditions: cell viability, 120 hours. The procedure:
(§1) The in vitro antiproliferative activity of the compounds of the present disclosure against TMD8 cells and OCI-LY10 cells was assayed using CTG (Cell Titer-Glo) luminescent cell viability assay. The specific assay methods were as follows. • a) TMD8 cells were cultured at 37 °C and 5% CO2 in complete medium [RPMI 1640 (supplier Gibco, product number 22400-089) + 10% FBS (supplier Gibco, product number 10091-148) + 1% P/S (supplier Hyclone, product number SV30010)]; OCI-LY10 cells were cultured at 37 °C and 5% CO2 in medium [IMDM (supplier Gibco, product number 31980-030) + 20% FBS (supplier Gibco, product number 10091-148) + 1% P/S (supplier Hyclone, product number SV30010) + 0.05 mM 2-Mercaptoethanol (supplier Sigma, product number M6250)]. • b) Cells in the logarithmic growth phase were harvested, and the total cell count and viable cell count were determined using a Vi-cell cell counter (supplier: BECKMAN COULTER, product number 2785198). • c) Cell density was adjusted using complete culture medium. Then, the cells were inoculated at 1500 cells per well in a 384-well cell culture plate (supplier Greiner, product number 781090). • d) The cells in the 384-well plate were cultured at 37 °C and 5% CO2 overnight. • e) A 10-fold drug solution was prepared, and then the serially diluted compound was transferred to the corresponding assay wells of the 384-well cell plate so that the final assay concentration was 1000 nM, with 9 concentrations, 3-fold dilutions, and triplicates for each drug concentration. • f) The cells in the 384-well plate with the drug added were cultured at 37 °C and 5% CO2 for another 120 hours. • g) The cells were removed from the incubator, and allowed to equilibrate at room temperature for 30 minutes. The cell state and compound solubility were observed under a microscope. • h) An equal volume of CellTiterGlo solution (supplier Promega, product number G7573) was added to each well, and the plate was incubated at room temperature for 30 minutes. • i) Then, the luminescent signal value was detected on an EnVision instrument (supplier PerkinElmer, product number 2441715).
(§2) The data were analyzed using XL-fit software (supplier: ID Business Solutions Ltd., software version: XL fit 5.5.0.5). Nonlinear regression was performed using X=Log(X), and the X values were transformed using a four-parameter Logistic model 205, from which the IC50 values were calculated. Inhibition rate % = (Max−samplevalue)/Max*100.(Max:DMSOnegativecontrol) [formula]

The test system of another assay is OCI-LY10 cells. The assay is described as follows: Viability assay of OCI-LY10 cells (CTG). The settings on record: cell viability, read-out: OCl-Ly10. The method, then: as §1, §2

`COc1ccc(F)cc1C(=O)NCc1ccc(-c2nc(C(C)C(F)(F)F)cc3[nH]nc(N)c23)cc1` (single isomer, unassigned) [Example 2, N-(4-(3-amino-6-(1,1,1-trifluoropropan-2-yl)-1H-pyrazolo[4,3-c]pyridin-4-yl)benzyl)-5-fluoro-2-methoxybenzamide]: the IC50 in the assay on Ramos cells with BTK WT (Homo sapiens, Ramos) fell in the range of 5 to 10 nM; with TMD8 cells (Homo sapiens) it was 5 to 10 nM; in the assay on OCI-LY10 cells (Homo sapiens, OCI-Ly10, 120 h), 10 to 50 nM.
`COc1ccc(F)cc1C(=O)NCc1ccc(-c2nc(C(C)C(F)(F)F)cc3[nH]nc(N)c23)cc1` (single isomer, unassigned) [Example 3, N-(4-(3-amino-6-(1,1,1-trifluoropropan-2-yl)-1H-pyrazolo[4,3-c]pyridin-4-yl)benzyl)-5-fluoro-2-methoxybenzamide]: the IC50 lay in the range of 5 to 10 nM in the assay with Ramos cells with BTK WT, 5 to 10 nM in the assay on TMD8 cells and 10 to 50 nM with OCI-LY10 cells (120 hours).
As to `COc1ccc(F)cc1C(=O)NCc1ccc(-c2nc(C(C)C(F)(F)F)c(-c3ccn(C)n3)c3[nH]nc(N)c23)cc1` (single isomer, unassigned) [Example 6-1, N-(4-(3-amino-7-(1-methyl-1H-pyrazol-3-yl)-6-(1,1,1-trifluoropropan-2-yl)-1H-pyrazolo[4,3-c]pyridin-4-yl)benzyl)-5-fluoro-2-methoxybenzamide], the IC50 in the assay with Ramos cells with BTK WT (Homo sapiens, Ramos) was at most 5 nM; with TMD8 cells (Homo sapiens), at most 5 nM; in the assay on OCI-LY10 cells (Homo sapiens, OCI-Ly10, 120 h) it was 5 to 10 nM.
As to `COc1ccc(F)cc1C(=O)NCc1ccc(-c2nc(C(C)C(F)(F)F)c(-c3ccn(C)n3)c3[nH]nc(N)c23)cc1` (single isomer, unassigned) [Example 6-2, N-(4-(3-amino-7-(1-methyl-1H-pyrazol-3-yl)-6-(1,1,1-trifluoropropan-2-yl)-1H-pyrazolo[4,3-c]pyridin-4-yl)benzyl)-5-fluoro-2-methoxybenzamide], the IC50 in the assay on Ramos cells with BTK WT, in the assay with TMD8 cells and with OCI-LY10 cells (120 hours) was at most 5 nM throughout.
On to `COc1ccc(F)cc1C(=O)NCc1ccc(-c2nc(C(C)C(F)(F)F)c(-c3ncccn3)c3[nH]nc(N)c23)cc1` (single isomer, unassigned) [Example 7-1, N-(4-(3-amino-7-(pyrimidin-2-yl)-6-(1,1,1-trifluoropropan-2-yl)-1H-pyrazolo[4,3-c]pyridin-4-yl)benzyl)-5-fluoro-2-methoxybenzamide], for which the IC50 is at most 5 nM in the assay with Ramos cells with BTK WT (Homo sapiens, Ramos); at most 5 nM in the assay with TMD8 cells (Homo sapiens); at most 5 nM in the assay with OCI-LY10 cells (Homo sapiens, OCI-Ly10, 120 h).
Consider `COc1ccc(F)cc1C(=O)NCc1ccc(-c2nc(C(C)C(F)(F)F)c(-c3ncccn3)c3[nH]nc(N)c23)cc1` (single isomer, unassigned) [Example 7-2, N-(4-(3-amino-7-(pyrimidin-2-yl)-6-(1,1,1-trifluoropropan-2-yl)-1H-pyrazolo[4,3-c]pyridin-4-yl)benzyl)-5-fluoro-2-methoxybenzamide], for which the IC50 is 5 to 10 nM in the assay with Ramos cells with BTK WT, at most 5 nM with TMD8 cells and at most 5 nM in the assay on OCI-LY10 cells (120 hours).
Consider `COc1ccc(F)cc1C(=O)NCc1ccc(-c2nc(C(C)C(F)(F)F)c(-c3cc(C)[nH]n3)c3[nH]nc(N)c23)cc1` (stereo not drawn) [Example 9, N-(4-(3-amino-7-(5-methyl-1H-pyrazol-3-yl)-6-(1,1,1-trifluoropropan-2-yl)-1H-pyrazolo[4,3-c]pyridin-4-yl)benzyl)-5-fluoro-2-methoxybenzamide], for which the IC50 in the assay with Ramos cells with BTK WT (Homo sapiens, Ramos) was 5 to 10 nM; with TMD8 cells (Homo sapiens) it was at most 5 nM; with OCI-LY10 cells (Homo sapiens, OCI-Ly10, 120 h), 5 to 10 nM.
Take `COc1ccc(F)cc1C(=O)NCc1ccc(-c2ncc(-c3ccccn3)c3[nH]nc(N)c23)cc1` [Example 15, N-(4-(3-amino-7-(pyridin-2-yl)-1H-pyrazolo[4,3-c]pyridin-4-yl)benzyl)-5-fluoro-2-methoxybenzamide]: the IC50 with Ramos cells with BTK WT (Homo sapiens, Ramos) is 5 to 10 nM; with TMD8 cells (Homo sapiens) it was at most 5 nM; in the assay with OCI-LY10 cells (Homo sapiens, OCI-Ly10, 120 h), 5 to 10 nM.
For `COc1ccc(F)cc1C(=O)NCc1ccc(-c2ncc(-c3ncccn3)c3[nH]nc(N)c23)cc1` [Example 17, N-(4-(3-amino-7-(pyrimidin-2-yl)-1H-pyrazolo[4,3-c]pyridin-4-yl)benzyl)-5-fluoro-2-methoxybenzamide], the IC50 in the assay on Ramos cells with BTK WT (Homo sapiens, Ramos) was 5 to 10 nM; in the assay on TMD8 cells (Homo sapiens), 5 to 10 nM; in the assay with OCI-LY10 cells (Homo sapiens, OCI-Ly10, 120 h), 10 to 50 nM.
On to `COc1ccc(F)cc1C(=O)NCc1ccc(-c2ncc(-c3cnccn3)c3[nH]nc(N)c23)cc1` [Example 18, N-(4-(3-amino-7-(pyrazin-2-yl)-1H-pyrazolo[4,3-c]pyridin-4-yl)benzyl)-5-fluoro-2-methoxybenzamide], for which the IC50 in the assay with Ramos cells with BTK WT (Homo sapiens, Ramos) is 10 to 50 nM; in the assay with TMD8 cells (Homo sapiens), 5 to 10 nM; in the assay with OCI-LY10 cells (Homo sapiens, OCI-Ly10, 120 h), 10 to 50 nM.
In the case of `COc1ccc(F)cc1C(=O)NCc1ccc(-c2ncc(-c3ccncn3)c3[nH]nc(N)c23)cc1` [Example 19], the IC50 in the assay with Ramos cells with BTK WT (Homo sapiens, Ramos) is 5 to 10 nM; in the assay on TMD8 cells (Homo sapiens), 5 to 10 nM; in the assay on OCI-LY10 cells (Homo sapiens, OCI-Ly10, 120 h) it was 10 to 50 nM.
As for `COc1ccc(F)cc1C(=O)NCc1ccc(-c2ncc(-c3ccc(F)cn3)c3[nH]nc(N)c23)cc1` [Example 21, N-(4-(3-amino-7-(5-fluoropyridin-2-yl)-1H-pyrazolo[4,3-c]pyridin-4-yl)benzyl)-5-fluoro-2-methoxybenzamide], the IC50 in the assay with Ramos cells with BTK WT (Homo sapiens, Ramos) was at most 5 nM; in the assay on TMD8 cells (Homo sapiens), at most 5 nM; in the assay on OCI-LY10 cells (Homo sapiens, OCI-Ly10, 120 h), 5 to 10 nM.
With `COc1ccc(F)cc1C(=O)NCc1ccc(-c2ncc(-c3nccn4nccc34)c3[nH]nc(N)c23)cc1` [Example 98, N-(4-(3-amino-7-(pyrazolo[1,5-a]pyrazin-4-yl)-1H-pyrazolo[4,3-c]pyridin-4-yl)benzyl)-5-fluoro-2-methoxybenzamide], in the assay on Ramos cells with BTK WT (Homo sapiens, Ramos), the IC50 is at most 5 nM.
On the same count and under the same terms, in the case of `COc1ccc(F)cc1C(=O)NCc1ccc(-c2ncc(-c3nc4ccccc4s3)c3[nH]nc(N)c23)cc1` [Example 99, N-(4-(3-amino-7-(benzo[d]thiazol-2-yl)-1H-pyrazolo[4,3-c]pyridin-4-yl)benzyl)-5-fluoro-2-methoxybenzamide] it was at most 5 nM; in that of `COc1ccc(F)cc1C(=O)NCc1ccc(-c2ncc(-c3nc4cccnc4s3)c3[nH]nc(N)c23)cc1` [Example 100, N-(4-(3-amino-7-(thiazolo[5,4-b]pyridin-2-yl)-1H-pyrazolo[4,3-c]pyridin-4-yl)benzyl)-5-fluoro-2-methoxybenzamide], at most 5 nM.
Same read-out and setting: with `CCN1CCc2nc(-c3cnc(-c4ccc(CNC(=O)c5cc(F)ccc5OC)cc4)c4c(N)n[nH]c34)sc2C1` [Example 101, N-(4-(3-amino-7-(5-ethyl-4,5,6,7-tetrahydrothiazolo[5,4-c]pyridin-2-yl)-1H-pyrazolo[4,3-c]pyridin-4-yl)benzyl)-5-fluoro-2-methoxybenzamide] the figure was at most 5 nM.
Same read-out and setting: with `COc1ccc(F)cc1C(=O)NCc1ccc(-c2ncc(-c3ccc4c(n3)nc3n4CCOC3)c3[nH]nc(N)c23)cc1` [Example 102, N-(4-(3-amino-7-(6,7-dihydro-9H-pyrido[2',3':4,5]imidazo[2,1-c][1,4]oxazin-2-yl)-1H-pyrazolo[4,3-c]pyridin-4-yl)benzyl)-5-fluoro-2-methoxybenzamide] the figure was 10 to 50 nM.
In turn, `COc1ccc(F)cc1C(=O)NCc1ccc(-c2ncc(-c3ccc4c(n3)nc3n4C(C)COC3)c3[nH]nc(N)c23)cc1` (stereo not drawn) [Example 103, N-(4-(3-amino-7-(6-methyl-6,7-dihydro-9H-pyrido[2',3':4,5]imidazo[2,1-c][1,4]oxazin-2-yl)-1H-pyrazolo[4,3-c]pyridin-4-yl)benzyl)-5-fluoro-2-methoxybenzamide] registered an IC50 in the assay on Ramos cells with BTK WT (Homo sapiens, Ramos) of 10 to 50 nM.
The same measure, in the same setting: with `COc1ccc(F)cc1C(=O)NCc1ccc(-c2ncc(-c3cccnc3)c3[nH]nc(N)c23)cc1` [Example 105, N-(4-(3-amino-7-(pyridin-3-yl)-1H-pyrazolo[4,3-c]pyridin-4-yl)benzyl)-5-fluoro-2-methoxybenzamide] the figure was over 50 nM.
Same read-out and setting: in the case of `COc1ccc(F)cc1C(=O)NCc1ccc(-c2ncc(-c3ccncc3)c3[nH]nc(N)c23)cc1` [Example 106, N-(4-(3-amino-7-(pyridin-4-yl)-1H-pyrazolo[4,3-c]pyridin-4-yl)benzyl)-5-fluoro-2-methoxybenzamide] it was over 50 nM.
Turning to “N-(4-(3-amino-7-(1-(difluoromethyl)-1H-pyrazol-3-yl)-1H-pyrazolo[4,3-c]pyridin-4-yl)benzyl)-5-fluoro-2-methoxybenzamide [Example 29]”, in the assay on Ramos cells with BTK WT, the IC50 is at most 5 nM.
